Laboratory results: ChEMBL document CHEMBL5390221, “Synthesis and biological activity assay of novel camptothecin-peptidic conjugates based on PEPT1” (Bioorg Med Chem Lett, 2023)

How the values were obtained:
[1] = tested on: HepG2; assay: Cytotoxicity against human HepG2 cells assessed as inhibition of cell growth; type: functional, cell-based
[2] = Cytotoxicity against human MPC2 cells assessed as inhibition of cell growth; type: functional, cell-based
[3] = tested on: Hep 3B2; assay: Cytotoxicity against human Hep3B cells assessed as inhibition of cell growth; type: functional, cell-based
[4] = tested on: BXPC-3; assay: Cytotoxicity against human BXPC-3 cells assessed as inhibition of cell growth; type: functional, cell-based
[5] = tested on: DU-145; assay: Cytotoxicity against human DU-145 cells assessed as inhibition of cell growth; type: functional, cell-based
[6] = tested on: NCI-H520; assay: Cytotoxicity against human NCI-H520 cells assessed as inhibition of cell growth; type: functional, cell-based
[7] = molecular target: T1, Solute carrier family 15 member 1 (Homo sapiens) (UniProt P46059); assay: Inhibition of PEPT1 (unknown origin) expressed in HEK293T cells assessed as inhibition of PEPT1 mediated Gly-Sar uptake using Gly-Sar as substrate at 20 uM relative to control; type: cell-based
T1 sequence (whole entry): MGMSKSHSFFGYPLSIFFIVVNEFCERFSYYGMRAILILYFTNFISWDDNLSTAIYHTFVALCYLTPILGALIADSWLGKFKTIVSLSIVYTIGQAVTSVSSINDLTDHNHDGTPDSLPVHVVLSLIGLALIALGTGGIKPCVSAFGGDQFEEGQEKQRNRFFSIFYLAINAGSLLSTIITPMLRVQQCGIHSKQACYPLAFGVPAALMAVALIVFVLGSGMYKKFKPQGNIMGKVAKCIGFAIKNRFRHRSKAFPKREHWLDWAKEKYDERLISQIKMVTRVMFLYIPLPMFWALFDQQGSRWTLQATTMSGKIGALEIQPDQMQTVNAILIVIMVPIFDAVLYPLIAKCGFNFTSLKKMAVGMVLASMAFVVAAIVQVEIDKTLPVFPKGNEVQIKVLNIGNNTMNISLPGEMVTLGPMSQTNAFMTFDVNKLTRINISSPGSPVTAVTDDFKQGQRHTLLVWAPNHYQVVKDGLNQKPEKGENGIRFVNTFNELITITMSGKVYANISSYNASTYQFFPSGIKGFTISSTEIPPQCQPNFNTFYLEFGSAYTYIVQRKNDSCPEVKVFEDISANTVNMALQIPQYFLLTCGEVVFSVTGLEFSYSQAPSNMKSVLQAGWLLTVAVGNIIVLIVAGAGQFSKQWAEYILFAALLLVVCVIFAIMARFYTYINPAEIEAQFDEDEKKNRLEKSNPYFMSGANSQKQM

Row | Structure (SMILES) | IC50 [1] [µM] | IC50 [2] [µM] | IC50 [3] [µM] | IC50 [4] [µM] | IC50 [5] [µM] | IC50 [6] [µM] | inhibition [7] [%]
1 | CC[C@@]1(OC(=O)CNC(=O)[C@H](Cc2ccccc2)NC(=O)OC(C)(C)C)C(=O)OCc2c1cc1n(c2=O)Cc2cc3ccccc3nc2-1 | 0.0747 | 0.206 | 1.12 | 0.0977 | 0.0743 | 0.0549 | 
2 | CC[C@H](C)[C@H](NC(C)=O)C(=O)NCC(=O)O[C@]1(CC)C(=O)OCc2c1cc1n(c2=O)Cc2cc3ccccc3nc2-1 | 0.0704 | 0.197 | 0.847 | 0.153 | 0.0944 | 0.109 | 
3 | CC[C@@]1(OC(=O)CNC(=O)[C@@H](NC(C)=O)C(C)C)C(=O)OCc2c1cc1n(c2=O)Cc2cc3ccccc3nc2-1 | 0.15 | 0.209 | 0.914 | 0.0548 | 0.087 | 0.125 | > 50
4 | CCC(=O)NCC(=O)O[C@]1(CC)C(=O)OCc2c1cc1n(c2=O)Cc2cc3ccccc3nc2-1 | 0.109 | 0.155 | 1.01 | 0.123 | 0.0528 | 0.166 | > 50
5 | CC[C@@]1(OC(=O)CNC(=O)[C@H](C)NC(=O)OC(C)(C)C)C(=O)OCc2c1cc1n(c2=O)Cc2cc3ccccc3nc2-1 | 0.114 | 0.18 | 0.85 | 0.0928 | 0.0681 | 0.0679 | 
6 | CC[C@H](C)[C@H](NC(=O)OC(C)(C)C)C(=O)NCC(=O)O[C@]1(CC)C(=O)OCc2c1cc1n(c2=O)Cc2cc3ccccc3nc2-1 | 0.176 | 0.166 | 1.77 | 0.222 | 0.097 | 0.0585 | 
7 | CCCC(=O)NCC(=O)O[C@]1(CC)C(=O)OCc2c1cc1n(c2=O)Cc2cc3ccccc3nc2-1 | 0.0918 | 0.106 | 1.51 | 0.157 | 0.055 | 0.153 | > 50
8 | CC[C@@]1(OC(=O)CNC(=O)[C@H](C)NC(C)=O)C(=O)OCc2c1cc1n(c2=O)Cc2cc3ccccc3nc2-1 | 0.0887 | 0.0914 | 1.01 | 0.108 | 0.0675 | 0.0693 | 
9 | CC[C@@]1(OC(=O)CNC(=O)CNC(C)=O)C(=O)OCc2c1cc1n(c2=O)Cc2cc3ccccc3nc2-1 | 0.0591 | 0.153 | 0.767 | 0.0752 | 0.0761 | 0.0986 | 
10 | CC[C@@]1(OC(=O)CNC(=O)[C@H](CCC(N)=O)NC(=O)OC(C)(C)C)C(=O)OCc2c1cc1n(c2=O)Cc2cc3ccccc3nc2-1 | 0.144 | 0.387 | 0.999 | 0.121 | 0.144 | 0.135 | > 50
11 | CC[C@@]1(OC(=O)CNC(=O)C(C)C)C(=O)OCc2c1cc1n(c2=O)Cc2cc3ccccc3nc2-1 | 0.129 | 0.0971 | 0.969 | 0.167 | 0.0554 | 0.0872 | 
12 | CC[C@@]1(OC(=O)CNC(=O)[C@H](CC(N)=O)NC(=O)OC(C)(C)C)C(=O)OCc2c1cc1n(c2=O)Cc2cc3ccccc3nc2-1 | 0.0886 | 0.26 | 0.784 | 0.0842 | 0.0899 | 0.058 | > 50
13 | CC[C@@]1(OC(=O)CNC(=O)[C@@H](NC(=O)OC(C)(C)C)C(C)C)C(=O)OCc2c1cc1n(c2=O)Cc2cc3ccccc3nc2-1 | 0.197 | 0.204 | 0.872 | 0.143 | 0.0788 | 0.0785 | 
14 | CC[C@@]1(O)C(=O)OCc2c1cc1n(c2=O)Cc2cc3ccccc3nc2-1 [CAMPTOTHECIN] | 0.0332 | 0.0837 | 0.434 | 0.0625 | 0.0335 | 0.025 | 
15 | CC[C@@]1(OC(=O)CNC(=O)[C@H](Cc2ccccc2)NC(C)=O)C(=O)OCc2c1cc1n(c2=O)Cc2cc3ccccc3nc2-1 | 0.0604 | 0.102 | 0.973 | 0.0895 | 0.0517 | 0.0569 | > 50
16 | CCCCCC(=O)NCC(=O)O[C@]1(CC)C(=O)OCc2c1cc1n(c2=O)Cc2cc3ccccc3nc2-1 | 0.114 | 0.0794 | 1.53 | 0.105 | 0.0461 | 0.162 | 
17 | CC[C@@]1(OC(=O)CNC(=O)[C@H](CC(C)C)NC(=O)OC(C)(C)C)C(=O)OCc2c1cc1n(c2=O)Cc2cc3ccccc3nc2-1 | 0.0876 | 0.125 | 1.06 | 0.162 | 0.0447 | 0.0348 | 
